We go through two molecules from US5686454A, “Camphorcarbonyl” (Merck & Co., Inc., priority 1996, dated 1997).

In general, IC50 refers to the concentration that gives 50% inhibition. As a reminder, the inhibition is how much of the control response was suppressed.

The target in this test is T1, uterine OT receptors (Rattus norvegicus, UniProt P70536).
T1 construct: crude membrane preparation of uteri; from tissue; host or cells: uterus of DES-treated rats, crude membranes
T1 sequence (P70536 1-388): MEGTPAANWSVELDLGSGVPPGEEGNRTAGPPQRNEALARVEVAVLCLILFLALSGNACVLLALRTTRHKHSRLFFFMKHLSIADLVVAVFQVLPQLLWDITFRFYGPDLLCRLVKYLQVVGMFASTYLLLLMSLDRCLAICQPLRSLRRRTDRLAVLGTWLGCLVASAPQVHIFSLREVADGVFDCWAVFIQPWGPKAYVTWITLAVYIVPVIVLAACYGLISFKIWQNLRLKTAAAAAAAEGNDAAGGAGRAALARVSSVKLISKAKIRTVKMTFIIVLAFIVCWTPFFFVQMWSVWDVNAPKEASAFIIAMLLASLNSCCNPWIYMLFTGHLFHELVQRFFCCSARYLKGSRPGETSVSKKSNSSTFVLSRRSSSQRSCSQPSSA
The test can be described thus: Radioligand binding: competition of [^3 H]oxytocin binding to rat uterine membranes. The text has this:
RADIOGLIGAND BINDING ASSAYS
The high affinity binding of [^3 H]

For the molecule `COC(=O)CCN1CCC(C(=O)NCC(C)C2(O)CC3CCC2(CS(=O)(=O)N2CCN(c4ccccc4C)CC2)C3(C)C)CC1` (stereo not drawn) [Example 91, 1-((7,7-Dimethyl-2-exo-hydroxy-2-endo-2-(1-(4-(1-methoxycarbonylethyl)-piperidinylcarbonyl)-amino)propylbicyclo(2.2.1)heptan-1-yl)methane-sulfonyl)-4-(2-methylphenyl)piperazine], where the note is “1 nM [^3 H]OT, rat uterus membranes, 60 minutes, 22° C., pH 7.4, read-out: IC50”, the IC50 worked out at 54 nM.

On to `Cc1ccccc1N1CCN(S(=O)(=O)CC23CCC(CC2(O)C(C)CNC(=O)C2CCN(CCC(=O)O)CC2)C3(C)C)CC1` (stereo not drawn) [Example 92, 1-((7,7-Dimethyl-2-exo-hydroxy-2-endo-2-(1-(4-(1-carboxyethyl)piperidinylcarbonyl)amino)propyl-bicyclo-(2.2.1)heptan-1-yl)methanesulfonyl)-4-(2-methylphenyl)piperazine], for which, where the note is “read-out: % inhibition at 100 nM”, the inhibition at 0.1 µM came out at 66%.
